Data on 41 compounds can be found in patent US9988341B2, “Bacterial topoisomerase inhibitors and use thereof” (THE FLORIDA INTERNATIONAL UNIVERSITY BOARD OF TRUSTEES, priority 2016, dated 2018).

By IC50 is commonly meant the concentration needed to halve the response being measured.

SMILES strings stand for the structures. Where two headings read alike, the source gives them in different places. Some results are limits rather than exact numbers.

The target of one test is E. coli topoisomerase I (Escherichia coli, UniProt P06612). Nature of the test: Bacterial topoisomerase I relaxation activity inhibition assay (EcTopI). The test is classed as biochemical. The following applies: Table 1; individual compounds tested as crude material; read-out: EcTopI relaxation inhibition (IC50). The protocol: The relaxation activity of bacterial topoisomerase I was assayed in a buffer containing 10 mM Tris-HCl, pH 8.0, 50 mM NaCl, 0.1 mg/mL gelatin, and 0.5 mM MgCl2. One microliter of the compounds dissolved in DMF (dimethylformamide) or solvent alone was mixed with 10 μl of the reaction buffer containing 10 ng of enzyme before the addition of 9 μl of reaction buffer containing 160 ng of supercoiled pBAD/Thio plasmid DNA purified by cesium chloride gradient as substrate. Following incubation at 37° C. for 30 min, the reactions were terminated by the addition of 4 μl of 50% glycerol, 50 mM EDTA, and 0.5% (v/v) bromophenol blue, and analyzed by agarose gel electrophoresis. The gels were stained in ethidium bromide and photographed under UV light.
E. coli topoisomerase I, sequence (P06612 whole entry): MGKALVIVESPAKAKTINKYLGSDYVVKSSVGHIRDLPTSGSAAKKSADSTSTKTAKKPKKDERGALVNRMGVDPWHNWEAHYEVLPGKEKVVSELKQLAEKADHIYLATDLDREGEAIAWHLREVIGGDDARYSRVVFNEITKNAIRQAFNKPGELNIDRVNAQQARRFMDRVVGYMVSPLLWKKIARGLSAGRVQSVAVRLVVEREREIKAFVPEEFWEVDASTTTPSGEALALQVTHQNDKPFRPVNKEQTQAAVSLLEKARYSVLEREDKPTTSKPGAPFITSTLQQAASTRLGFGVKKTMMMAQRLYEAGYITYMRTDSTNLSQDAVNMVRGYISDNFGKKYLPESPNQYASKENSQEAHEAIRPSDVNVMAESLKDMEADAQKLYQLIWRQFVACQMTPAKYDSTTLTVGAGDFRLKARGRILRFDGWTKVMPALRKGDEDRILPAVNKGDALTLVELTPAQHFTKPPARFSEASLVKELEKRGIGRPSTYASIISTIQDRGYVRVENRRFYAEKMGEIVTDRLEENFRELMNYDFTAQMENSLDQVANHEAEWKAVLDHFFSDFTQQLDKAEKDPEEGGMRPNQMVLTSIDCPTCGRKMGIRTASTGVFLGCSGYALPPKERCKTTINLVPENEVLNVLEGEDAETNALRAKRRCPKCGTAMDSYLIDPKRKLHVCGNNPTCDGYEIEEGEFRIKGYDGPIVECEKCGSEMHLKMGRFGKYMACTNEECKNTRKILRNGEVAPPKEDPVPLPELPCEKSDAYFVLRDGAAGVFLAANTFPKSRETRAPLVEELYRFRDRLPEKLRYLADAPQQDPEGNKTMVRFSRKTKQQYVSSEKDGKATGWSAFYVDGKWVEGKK

Test [1] deals with M. tuberculosis topoisomerase I (Mycobacterium tuberculosis, UniProt P9WG49). Kind of test: biochemical. The following applies: Table 6; read-out: IC50 M. tuberculosis topoisomerase I.
M. tuberculosis topoisomerase I, sequence (P9WG49 whole entry): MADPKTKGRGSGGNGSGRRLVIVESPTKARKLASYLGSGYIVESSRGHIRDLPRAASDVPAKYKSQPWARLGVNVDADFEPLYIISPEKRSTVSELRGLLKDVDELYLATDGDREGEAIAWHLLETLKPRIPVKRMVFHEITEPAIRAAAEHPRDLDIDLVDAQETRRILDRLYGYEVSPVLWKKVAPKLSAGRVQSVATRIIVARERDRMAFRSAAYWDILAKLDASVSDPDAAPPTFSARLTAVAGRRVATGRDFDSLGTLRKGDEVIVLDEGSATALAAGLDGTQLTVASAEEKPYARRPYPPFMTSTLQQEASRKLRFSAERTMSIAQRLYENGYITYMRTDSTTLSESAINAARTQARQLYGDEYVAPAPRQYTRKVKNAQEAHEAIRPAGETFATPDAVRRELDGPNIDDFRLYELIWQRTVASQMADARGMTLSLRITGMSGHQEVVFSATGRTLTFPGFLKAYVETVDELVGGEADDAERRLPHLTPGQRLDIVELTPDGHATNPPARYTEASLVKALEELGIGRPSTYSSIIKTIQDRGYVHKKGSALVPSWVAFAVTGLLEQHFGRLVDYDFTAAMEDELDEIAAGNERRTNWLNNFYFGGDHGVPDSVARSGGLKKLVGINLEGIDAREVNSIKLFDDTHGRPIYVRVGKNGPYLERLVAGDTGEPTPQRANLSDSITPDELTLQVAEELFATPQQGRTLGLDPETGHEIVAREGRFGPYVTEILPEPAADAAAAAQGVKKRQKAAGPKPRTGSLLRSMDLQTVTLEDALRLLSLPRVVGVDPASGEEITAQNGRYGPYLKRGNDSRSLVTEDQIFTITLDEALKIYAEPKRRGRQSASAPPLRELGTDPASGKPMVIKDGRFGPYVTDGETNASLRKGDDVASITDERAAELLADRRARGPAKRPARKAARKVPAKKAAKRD
The next test addresses T1, E. coli DNA gyrase (Escherichia coli, UniProt P0AES4+P0AES6).
T1 construct: purchased New England BioLabs
Nature of the test: DNA gyrase supercoiling inhibition assay. The test is classed as biochemical. As for the experimental part: DNA gyrase (obtained from New England BioLabs) supercoiling assays were carried out by mixing the compounds with 2 U of the enzyme in reaction buffer supplied by the manufacturer, followed by the addition of 300 ng of relaxed covalently closed circular DNA was for a final reaction volume of 20 μL. The samples were incubated at 37° C. for 30 minutes before being terminated by the addition of a buffer containing 5% SDS, 0.25% bromophenol blue, and 25% glycerol. The reactions were then analyzed by agarose gel electrophoresis.

The target of a further test is T2, Human topoisomerase I (Homo sapiens, UniProt P11387).
T2 construct: purchased TopoGen
T2 sequence (P11387 1-765): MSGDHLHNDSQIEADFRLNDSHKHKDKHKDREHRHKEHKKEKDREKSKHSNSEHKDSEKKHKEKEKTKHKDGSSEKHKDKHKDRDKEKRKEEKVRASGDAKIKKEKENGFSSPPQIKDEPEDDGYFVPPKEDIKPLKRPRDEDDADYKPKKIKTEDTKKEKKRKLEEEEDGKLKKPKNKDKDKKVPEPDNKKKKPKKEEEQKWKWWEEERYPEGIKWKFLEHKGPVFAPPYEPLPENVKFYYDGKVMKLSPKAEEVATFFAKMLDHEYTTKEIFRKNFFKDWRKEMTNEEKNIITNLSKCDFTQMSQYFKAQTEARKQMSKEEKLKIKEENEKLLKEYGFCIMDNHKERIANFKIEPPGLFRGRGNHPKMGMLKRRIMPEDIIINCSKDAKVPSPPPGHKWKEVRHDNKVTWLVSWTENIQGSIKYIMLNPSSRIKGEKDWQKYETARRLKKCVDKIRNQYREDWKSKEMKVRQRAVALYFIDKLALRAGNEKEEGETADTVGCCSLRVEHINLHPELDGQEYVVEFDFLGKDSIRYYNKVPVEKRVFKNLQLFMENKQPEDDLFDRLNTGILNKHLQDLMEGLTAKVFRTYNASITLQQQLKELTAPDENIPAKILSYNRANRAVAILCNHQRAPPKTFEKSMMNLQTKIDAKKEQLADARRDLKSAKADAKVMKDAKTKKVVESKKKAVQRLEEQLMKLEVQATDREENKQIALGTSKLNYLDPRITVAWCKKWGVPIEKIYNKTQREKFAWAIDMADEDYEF
Kind of test: Human topoisomerase I relaxation inhibition assay. Type of test: biochemical. The protocol: Human topoisomerase I (obtained from TopoGen) relaxation assays were carried out with 0.5 U of enzyme in reaction buffer supplied by the manufacturer. The enzyme was mixed with the indicated concentration of compound dissolved before 160 ng of supercoiled pBAD/Thio plasmid DNA was added in the same buffer, for a final volume of 20 μL. Following incubation at 37° C. for 30 minutes, the reactions were terminated with a buffer containing 5% SDS, 0.25% bromophenol blue, and 25% glycerol, and analyzed by agarose gel electrophoresis.

The target in another test is T3, Human Topoisomerase IIα (Homo sapiens, UniProt P11388).
T3 construct: purchased TopoGen
T3 sequence (P11388 whole entry): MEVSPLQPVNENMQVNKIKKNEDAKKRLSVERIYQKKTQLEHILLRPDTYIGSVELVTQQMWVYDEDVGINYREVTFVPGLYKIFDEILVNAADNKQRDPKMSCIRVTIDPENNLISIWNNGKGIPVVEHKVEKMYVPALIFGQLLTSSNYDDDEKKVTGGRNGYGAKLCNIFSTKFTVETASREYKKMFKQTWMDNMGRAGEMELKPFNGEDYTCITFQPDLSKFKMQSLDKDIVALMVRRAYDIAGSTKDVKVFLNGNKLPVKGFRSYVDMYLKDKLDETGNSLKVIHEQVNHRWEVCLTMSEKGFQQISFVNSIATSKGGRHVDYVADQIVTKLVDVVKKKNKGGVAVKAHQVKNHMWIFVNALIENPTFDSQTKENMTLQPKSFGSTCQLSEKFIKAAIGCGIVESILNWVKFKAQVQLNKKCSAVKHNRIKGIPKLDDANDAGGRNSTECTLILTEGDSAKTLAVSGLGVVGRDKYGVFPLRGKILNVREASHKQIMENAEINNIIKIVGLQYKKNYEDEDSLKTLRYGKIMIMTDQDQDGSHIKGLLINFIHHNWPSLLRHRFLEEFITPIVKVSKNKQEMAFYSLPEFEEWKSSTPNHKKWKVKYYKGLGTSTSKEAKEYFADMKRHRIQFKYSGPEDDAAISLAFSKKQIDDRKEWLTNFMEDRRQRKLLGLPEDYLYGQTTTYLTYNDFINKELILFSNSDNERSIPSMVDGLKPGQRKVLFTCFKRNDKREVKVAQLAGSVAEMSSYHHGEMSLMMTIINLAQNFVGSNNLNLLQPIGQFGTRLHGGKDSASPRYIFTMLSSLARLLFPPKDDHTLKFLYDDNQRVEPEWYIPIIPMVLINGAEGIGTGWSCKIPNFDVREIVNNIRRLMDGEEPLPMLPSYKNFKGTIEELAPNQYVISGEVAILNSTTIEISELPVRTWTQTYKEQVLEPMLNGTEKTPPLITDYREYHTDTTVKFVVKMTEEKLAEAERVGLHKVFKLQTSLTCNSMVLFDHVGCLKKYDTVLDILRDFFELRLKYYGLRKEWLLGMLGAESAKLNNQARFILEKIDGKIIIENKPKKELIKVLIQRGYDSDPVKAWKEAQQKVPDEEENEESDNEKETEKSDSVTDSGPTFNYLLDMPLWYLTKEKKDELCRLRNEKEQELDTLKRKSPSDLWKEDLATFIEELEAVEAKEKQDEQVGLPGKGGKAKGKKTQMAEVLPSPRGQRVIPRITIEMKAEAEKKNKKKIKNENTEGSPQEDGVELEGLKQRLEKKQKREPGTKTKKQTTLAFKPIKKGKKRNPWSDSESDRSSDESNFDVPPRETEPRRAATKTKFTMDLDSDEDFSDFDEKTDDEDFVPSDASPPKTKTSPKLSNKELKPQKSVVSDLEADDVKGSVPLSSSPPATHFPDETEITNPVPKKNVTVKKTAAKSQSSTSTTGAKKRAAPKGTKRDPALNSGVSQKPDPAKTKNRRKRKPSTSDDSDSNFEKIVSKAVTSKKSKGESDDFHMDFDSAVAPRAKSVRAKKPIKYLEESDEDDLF
Kind of test: Human topoisomerase IIα decatenation inhibition assay. The test is classed as biochemical. The protocol:
Human Topoisomerase IIα (obtained from TopoGen) assays were carried out by adding the compounds to 180 ng of kinetoplast DNA (kDNA) in the buffer supplied by the manufacturer before the addition of 2 U of the enzyme. The samples were incubated for 15 minutes at 37° C. before the addition of 4 μl of stop buffer containing 5% sarkosyl, 0.0025% bromophenol blue, and 25% glycerol. The reactions were then analyzed by electrophoresis in 1% agarose gels containing 0.5 μg ml^−1 ethidium bromide before being photographed under UV light.

Setting [2] is: supercoiling, read-out: IC50 E. coli DNA gyrase.

T1 sequence (P0AES4 whole entry, one chain of several): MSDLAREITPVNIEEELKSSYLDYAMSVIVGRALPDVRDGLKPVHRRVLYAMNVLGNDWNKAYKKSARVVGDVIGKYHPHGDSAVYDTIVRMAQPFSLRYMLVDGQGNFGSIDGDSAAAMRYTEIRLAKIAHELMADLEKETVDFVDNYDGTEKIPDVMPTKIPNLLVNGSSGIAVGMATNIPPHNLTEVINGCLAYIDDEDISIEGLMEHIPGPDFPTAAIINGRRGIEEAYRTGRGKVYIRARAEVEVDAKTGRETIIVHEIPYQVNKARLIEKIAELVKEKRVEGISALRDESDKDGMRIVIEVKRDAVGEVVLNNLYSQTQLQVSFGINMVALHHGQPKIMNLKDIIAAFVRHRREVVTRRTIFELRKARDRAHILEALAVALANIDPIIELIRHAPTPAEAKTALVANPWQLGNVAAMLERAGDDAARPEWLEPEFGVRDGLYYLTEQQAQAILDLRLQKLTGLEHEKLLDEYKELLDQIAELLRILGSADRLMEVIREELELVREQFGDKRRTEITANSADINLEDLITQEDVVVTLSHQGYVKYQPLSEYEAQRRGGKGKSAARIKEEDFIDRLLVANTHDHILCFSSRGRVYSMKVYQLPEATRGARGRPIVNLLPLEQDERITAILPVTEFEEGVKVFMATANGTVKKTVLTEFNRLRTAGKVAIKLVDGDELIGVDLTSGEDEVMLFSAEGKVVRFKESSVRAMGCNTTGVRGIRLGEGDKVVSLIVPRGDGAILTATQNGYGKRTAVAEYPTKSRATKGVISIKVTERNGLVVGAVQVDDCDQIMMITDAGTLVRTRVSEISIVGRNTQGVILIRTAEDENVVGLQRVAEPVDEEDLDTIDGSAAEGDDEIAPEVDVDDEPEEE

For `CNCCCC[C@@H](CN)NC[C@H](CCCCNC)NCCCc1cccc(Br)c1` [Compound 2471-1], the IC50 on E. coli topoisomerase I was determined as 160 µM. With `CNCCCC[C@@H](CN)NC[C@H](CCCNC(=N)N)NCCCc1cccc(Br)c1` [Compound 2471-4], the IC50 on E. coli topoisomerase I amounted to 160 µM. In the case of `CNCCCC[C@@H](CN)NC[C@H](CCCNC(=N)N)NCCCc1ccc(O)c(O)c1` [Compound 2471-5], the IC50 on E. coli topoisomerase I was above 160 µM. `CCC[C@H](CN[C@H](CN)CCCCNC)NCCCc1cccc(Br)c1` [Compound 2471-7]: on E. coli topoisomerase I, the IC50 stood at 160 µM. In the case of `CCC[C@H](CN[C@H](CN)CCCCNC)NCCCc1ccc(O)c(O)c1` [Compound 2471-8], the IC50 at E. coli topoisomerase I is above 160 µM. For `CCCC[C@@H](CN[C@H](CN)CCCCNC)NCCCc1cccc(Br)c1` [Compound 2471-10], the IC50 at E. coli topoisomerase I amounted to 160 µM. Take `CCCC[C@@H](CN[C@H](CN)CCCCNC)NCCCc1ccc(O)c(O)c1` [Compound 2471-11]: at E. coli topoisomerase I, the IC50 was above 160 µM.

In the case of `CNCCCC[C@@H](CN[C@H](CN)CCCN)NCCCc1cccc(Br)c1` [Compound 2471-13], the IC50 at E. coli topoisomerase I was 160 µM. Same read-out and setting: as for `CNCCCC[C@@H](CN[C@H](CN)CCCN)NCCCc1ccc(O)c(O)c1` [Compound 2471-14], the figure is above 160 µM. Consider `N=C(N)NCCC[C@@H](CN[C@H](CN)CCCN)NCCCc1ccc(O)c(O)c1` [Compound 2471-17], for which, on E. coli topoisomerase I, the IC50 was above 160 µM. The same measure, in the same setting: as for `CCC[C@H](CN[C@H](CN)CCCN)NCCCc1cccc(Br)c1` [Compound 2471-19], the figure is 160 µM; as for `CCC[C@H](CN[C@H](CN)CCCN)NCCCc1ccc(O)c(O)c1` [Compound 2471-20], above 160 µM; as for `CCCC[C@@H](CN[C@H](CN)CCCN)NCCCc1cccc(Br)c1` [Compound 2471-22], 160 µM. Turning to `CCCC[C@@H](CN[C@H](CN)CCCN)NCCCc1ccc(O)c(O)c1` [Compound 2471-23], on E. coli topoisomerase I, the IC50 was above 160 µM.

Regarding `CNCCCC[C@H](CN)NC[C@H](CCCCNC)NCCCc1cccc(Br)c1` [Compound 2471-25], on E. coli topoisomerase I, the concentration for half-maximal inhibition (IC50) was determined as 160 µM. Take `CNCCCC[C@H](CN)NC[C@H](CCCNC(=N)N)NCCCc1ccc(O)c(O)c1` [Compound 2471-29]: the IC50 on E. coli topoisomerase I came out at 120 µM. With `CCC[C@H](CN[C@@H](CN)CCCCNC)NCCCc1cccc(Br)c1` [Compound 2471-31], the IC50 on E. coli topoisomerase I came out at 160 µM. For `CCC[C@H](CN[C@@H](CN)CCCCNC)NCCCc1ccc(O)c(O)c1` [Compound 2471-32], at E. coli topoisomerase I, the IC50 is above 160 µM. With `CCCC[C@@H](CN[C@@H](CN)CCCCNC)NCCCc1cccc(Br)c1` [Compound 2471-34], at E. coli topoisomerase I, the IC50 stood at 160 µM. `CCCC[C@@H](CN[C@@H](CN)CCCCNC)NCCCc1ccc(O)c(O)c1` [Compound 2471-35]: on E. coli topoisomerase I, the IC50 is above 160 µM. Take `CCCC[C@H](CN[C@H](CN)CC1CCCCC1)NCC1CCC(C(C)(C)C)CC1` (some centres unmarked) [Compound 2471-50]: the IC50 on E. coli topoisomerase I worked out at 160 µM. `CCCC[C@H](CN[C@H](CN)CC1CCCCC1)NCCCCCC1CCCCC1` [Compound 2471-51]: the IC50 at E. coli topoisomerase I amounted to 160 µM. Consider `CNCCC[C@@H](CN[C@H](CN)CC1CCCCC1)NCCCc1cc(C(F)(F)F)cc(C(F)(F)F)c1` [Compound 2471-52], for which the IC50 on E. coli topoisomerase I was 160 µM. `CNCCC[C@@H](CN[C@H](CN)CC1CCCCC1)NCC1CCC(C(C)(C)C)CC1` (some centres unmarked) [Compound 2471-53]: at E. coli topoisomerase I, the IC50 is above 160 µM.

`CNCCC[C@@H](CN[C@H](CN)CC1CCCCC1)NCCCCCC1CCCCC1` [Compound 2471-54]: the IC50 at E. coli topoisomerase I was above 160 µM. As for `CNCCC[C@H](CN[C@H](CN)CC1CCCCC1)NCCCc1cc(C(F)(F)F)cc(C(F)(F)F)c1` [Compound 2471-55], the IC50 at E. coli topoisomerase I was 160 µM. For the compound `CNCCC[C@H](CN[C@H](CN)CC1CCCCC1)NCC1CCC(C(C)(C)C)CC1` (some centres unmarked) [Compound 2471-56], at E. coli topoisomerase I, the IC50 was 160 µM. Take `CNCCC[C@H](CN[C@H](CN)CC1CCCCC1)NCCCCCC1CCCCC1` [Compound 2471-57]: the IC50 at E. coli topoisomerase I turned out to be 160 µM.

As for `CCCC[C@H](CN[C@@H](CN)CC1CCCCC1)NCC1CCC(C(C)(C)C)CC1` (some centres unmarked) [Compound 2471-62], the IC50 at E. coli topoisomerase I worked out at 160 µM. On the same count and under the same terms, as for `CCCC[C@H](CN[C@@H](CN)CC1CCCCC1)NCCCCCC1CCCCC1` [Compound 2471-63], the figure is 160 µM; as for `CNCCC[C@@H](CN[C@@H](CN)CC1CCCCC1)NCCCc1cc(C(F)(F)F)cc(C(F)(F)F)c1` [Compound 2471-64], 160 µM.

In the case of `CNCCC[C@@H](CN[C@@H](CN)CC1CCCCC1)NCC1CCC(C(C)(C)C)CC1` (some centres unmarked) [Compound 2471-65], the IC50 on E. coli topoisomerase I worked out at 160 µM. For `CNCCC[C@@H](CN[C@@H](CN)CC1CCCCC1)NCCCCCC1CCCCC1` [Compound 2471-66], at E. coli topoisomerase I, the IC50 stood at 160 µM.

`CNCCC[C@H](CN[C@@H](CN)CC1CCCCC1)NCCCc1cc(C(F)(F)F)cc(C(F)(F)F)c1` [Compound 2471-67]: on E. coli topoisomerase I, the IC50 is 160 µM. `CNCCC[C@H](CN[C@@H](CN)CC1CCCCC1)NCC1CCC(C(C)(C)C)CC1` (some centres unmarked) [Compound 2471-68]: the IC50 on E. coli topoisomerase I was found to be 160 µM. As to `CC(C)(C)C1CCC(CN[C@H](CN[C@@H](CN)CC2CCCCC2)Cc2ccc(F)cc2)CC1` (some centres unmarked) [Compound 2471-71], on E. coli topoisomerase I, the IC50 was determined as 40 µM. Take `CCC[C@H](CN)NC[C@@H](CCCNC(=N)N)NCCc1cccc2ccccc12` [Compound 2580-3]: the IC50 is 6 µM in test [1], above 80 µM on E. coli DNA gyrase (setting [2]), above 80 µM on Human topoisomerase I and above 80 µM at Human Topoisomerase IIα. As to `CNCCC[C@H](CN)NC[C@@H](CCCNC(=N)N)NCCc1cccc2ccccc12` [Compound 2580-15], the IC50 in test [1] was 0.73 µM; on E. coli DNA gyrase (setting [2]), above 90 µM; on Human topoisomerase I it was above 90 µM; against Human Topoisomerase IIα, above 90 µM. For `CCCC[C@H](CN[C@@H](CN)CCCNC)NCCc1cccc2ccccc12` [Compound 2580-18], the IC50 is 3.2 µM in test [1], above 100 µM on E. coli DNA gyrase (setting [2]), above 100 µM on Human topoisomerase I and above 100 µM on Human Topoisomerase IIα. For the compound `CNCCC[C@H](CN)NC[C@@H](Cc1ccc2ccccc2c1)NCCc1cccc2ccccc12` [Compound 2580-24], the IC50 in test [1] is 8 µM; against E. coli DNA gyrase, above 85 µM; on Human topoisomerase I, above 85 µM; against Human Topoisomerase IIα, above 85 µM. On to `CNCCC[C@@H](CN[C@@H](CN)Cc1ccc2ccccc2c1)NCCc1cccc2ccccc12` [Compound 2580-33], for which the IC50 in test [1] was 8 µM; on E. coli DNA gyrase, above 85 µM; on Human topoisomerase I it was above 85 µM; against Human Topoisomerase IIα, above 85 µM.
